# Measured values as given in US8802895B2, “Amide derivatives of benzene-sulfonanilide, pharmaceutical composition thereof and method for cancer treatment using the same” (Cleveland State University, priority 2010, dated 2014).
# Tests used:
# Assay type in all cases: cell-based
# NCI-H226 = assay: NCIDTP 60 cancer cell lines screening, Non-Small Cell Lung Cancer panel
# NCI-H522 = assay: as above
# HCC-2998 = assay: NCIDTP 60 cancer cell lines screening, Colon Cancer panel
# HCT-116 = assay: as above
# SF-268 = assay: NCIDTP 60 cancer cell lines screening, CNS Cancer panel
# SNB-75 = assay: as above
# LOX IMVI = assay: NCIDTP 60 cancer cell lines screening, Melanoma panel
# MALME-3M = assay: as above
# M14 = assay: as above
# MDA-MB-435 = assay: as above
# UACC-257 = assay: as above
# UACC-62 = assay: as above
# CAKI-1 = assay: NCIDTP 60 cancer cell lines screening, Renal Cancer panel
# RXF 393 = assay: as above
# SN12C = assay: as above
# MCF7 = assay: NCIDTP 60 cancer cell lines screening, Breast Cancer panel
# MDA-MB-468 = assay: as above
structure (smiles),measurement,setting,value
"Cc1ccc(C)c(COc2cc(NC(=O)c3ccc4c(c3)OCO4)ccc2N(C)S(C)(=O)=O)c1 [Compound #10, Benzo[1,3]dioxole-5-carboxylic acid [3-(2,5-dimethyl-benzyloxy)-4-(methanesulfonyl-methyl-amino)-phenyl]-amide]",GI50,"NCI-H226; Homo sapiens, NCI-H226",686 nM
same,CC50,"NCI-H226; Homo sapiens, NCI-H226, read-out: LC50",> 100000 nM
same,TGI,NCI-H226; NCI-H226,>1.00E−4 Molar
same,Percent Growth,"NCI-H226; NCI-H226, Log10 Concentration −4.0 Molar",16%
same,Percent Growth,"NCI-H226; NCI-H226, Log10 Concentration −5.0 Molar",20%
same,Percent Growth,"NCI-H226; NCI-H226, Log10 Concentration −6.0 Molar",42%
same,Percent Growth,"NCI-H226; NCI-H226, Log10 Concentration −7.0 Molar",93%
same,Percent Growth,"NCI-H226; NCI-H226, Log10 Concentration −8.0 Molar",87%
same,GI50,"NCI-H522; Homo sapiens, NCI-H522",33.5 nM
same,CC50,"NCI-H522; Homo sapiens, NCI-H522, read-out: LC50",> 100000 nM
same,TGI,NCI-H522; NCI-H522,2.40E−7 Molar
same,Percent Growth,"NCI-H522; NCI-H522, Log10 Concentration −4.0 Molar",−36%
same,Percent Growth,"NCI-H522; NCI-H522, Log10 Concentration −5.0 Molar",−42%
same,Percent Growth,"NCI-H522; NCI-H522, Log10 Concentration −6.0 Molar",−37%
same,Percent Growth,"NCI-H522; NCI-H522, Log10 Concentration −7.0 Molar",23%
same,Percent Growth,"NCI-H522; NCI-H522, Log10 Concentration −8.0 Molar",80%
same,TGI,HCC-2998; HCC-2998,3.92E−7 Molar
same,Percent Growth,"HCC-2998; HCC-2998, Log10 Concentration −4.0 Molar",−64%
same,Percent Growth,"HCC-2998; HCC-2998, Log10 Concentration −5.0 Molar",−61%
same,Percent Growth,"HCC-2998; HCC-2998, Log10 Concentration −6.0 Molar",−40%
same,Percent Growth,"HCC-2998; HCC-2998, Log10 Concentration −7.0 Molar",58%
same,Percent Growth,"HCC-2998; HCC-2998, Log10 Concentration −8.0 Molar",99%
same,CC50,"HCC-2998; Homo sapiens, HCC 2998, read-out: LC50",2970 nM
same,GI50,"HCC-2998; Homo sapiens, HCC-2998",120 nM
same,TGI,HCT-116; HCT-116,1.02E−6 Molar
same,Percent Growth,"HCT-116; HCT-116, Log10 Concentration −4.0 Molar",−47%
same,Percent Growth,"HCT-116; HCT-116, Log10 Concentration −5.0 Molar",−47%
same,Percent Growth,"HCT-116; HCT-116, Log10 Concentration −7.0 Molar",45%
same,Percent Growth,"HCT-116; HCT-116, Log10 Concentration −8.0 Molar",89%
same,GI50,"HCT-116; Homo sapiens, HCT-116",75.3 nM
same,CC50,"HCT-116; Homo sapiens, HCT-116, read-out: LC50",> 100000 nM
same,GI50,"SF-268; Homo sapiens, SF-268",288 nM
same,CC50,"SF-268; Homo sapiens, SF-268, read-out: LC50",> 100000 nM
same,TGI,SF-268; SF-268,>1.00E−4 Molar
same,Percent Growth,"SF-268; SF-268, Log10 Concentration −4.0 Molar",16%
same,Percent Growth,"SF-268; SF-268, Log10 Concentration −5.0 Molar",9%
same,Percent Growth,"SF-268; SF-268, Log10 Concentration −6.0 Molar",19%
same,Percent Growth,"SF-268; SF-268, Log10 Concentration −7.0 Molar",77%
same,Percent Growth,"SF-268; SF-268, Log10 Concentration −8.0 Molar",93%
same,GI50,"SNB-75; Homo sapiens, SNB-75",266 nM
same,CC50,"SNB-75; Homo sapiens, SNB-75, read-out: LC50",> 100000 nM
same,Percent Growth,"SNB-75; SNB-75, Log10 Concentration −4.0 Molar",3%
same,Percent Growth,"SNB-75; SNB-75, Log10 Concentration −5.0 Molar",−6%
same,Percent Growth,"SNB-75; SNB-75, Log10 Concentration −6.0 Molar",−5%
same,Percent Growth,"SNB-75; SNB-75, Log10 Concentration −7.0 Molar",91%
same,Percent Growth,"SNB-75; SNB-75, Log10 Concentration −8.0 Molar",86%
same,TGI,LOX IMVI,>1.00E−4 Molar
same,GI50,LOX IMVI; Homo sapiens,66.6 nM
same,CC50,"LOX IMVI; Homo sapiens, read-out: LC50",> 100000 nM
same,Percent Growth,LOX IMVI; Log10 Concentration −4.0 Molar,26%
same,Percent Growth,LOX IMVI; Log10 Concentration −5.0 Molar,21%
same,Percent Growth,LOX IMVI; Log10 Concentration −6.0 Molar,13%
same,Percent Growth,LOX IMVI; Log10 Concentration −7.0 Molar,41%
same,Percent Growth,LOX IMVI; Log10 Concentration −8.0 Molar,91%
same,GI50,"MALME-3M; Homo sapiens, Malme-3M",229 nM
same,CC50,"MALME-3M; Homo sapiens, Malme-3M, read-out: LC50",> 100000 nM
same,TGI,MALME-3M; MALME-3M,>1.00E−4 Molar
same,Percent Growth,"MALME-3M; MALME-3M, Log10 Concentration −4.0 Molar",49%
same,Percent Growth,"MALME-3M; MALME-3M, Log10 Concentration −5.0 Molar",40%
same,Percent Growth,"MALME-3M; MALME-3M, Log10 Concentration −6.0 Molar",31%
same,Percent Growth,"MALME-3M; MALME-3M, Log10 Concentration −7.0 Molar",61%
same,Percent Growth,"MALME-3M; MALME-3M, Log10 Concentration −8.0 Molar",87%
same,GI50,"M14; Homo sapiens, M14",75.7 nM
same,CC50,"M14; Homo sapiens, M14, read-out: LC50",> 100000 nM
same,TGI,M14; M14,6.69E−7 Molar
same,Percent Growth,"M14; M14, Log10 Concentration −4.0 Molar",−29%
same,Percent Growth,"M14; M14, Log10 Concentration −5.0 Molar",−45%
same,Percent Growth,"M14; M14, Log10 Concentration −6.0 Molar",−9%
same,Percent Growth,"M14; M14, Log10 Concentration −7.0 Molar",45%
same,Percent Growth,"M14; M14, Log10 Concentration −8.0 Molar",90%
same,GI50,"MDA-MB-435; Homo sapiens, MDA-MB-435",28.5 nM
same,CC50,"MDA-MB-435; Homo sapiens, MDA-MB-435, read-out: LC50",> 100000 nM
same,TGI,MDA-MB-435; MDA-MB-435,9.14E−8 Molar
same,Percent Growth,"MDA-MB-435; MDA-MB-435, Log10 Concentration −4.0 Molar",−17%
same,Percent Growth,"MDA-MB-435; MDA-MB-435, Log10 Concentration −5.0 Molar",−28%
same,Percent Growth,"MDA-MB-435; MDA-MB-435, Log10 Concentration −6.0 Molar",−30%
same,Percent Growth,"MDA-MB-435; MDA-MB-435, Log10 Concentration −7.0 Molar",−4%
same,Percent Growth,"MDA-MB-435; MDA-MB-435, Log10 Concentration −8.0 Molar",95%
same,GI50,"UACC-257; Homo sapiens, UACC-257",144 nM
same,CC50,"UACC-257; Homo sapiens, UACC-257, read-out: LC50",> 100000 nM
same,TGI,UACC-257; UACC-257,>1.00E−4 Molar
same,Percent Growth,"UACC-257; UACC-257, Log10 Concentration −4.0 Molar",13%
same,Percent Growth,"UACC-257; UACC-257, Log10 Concentration −5.0 Molar",29%
same,Percent Growth,"UACC-257; UACC-257, Log10 Concentration −6.0 Molar",32%
same,Percent Growth,"UACC-257; UACC-257, Log10 Concentration −7.0 Molar",53%
same,Percent Growth,"UACC-257; UACC-257, Log10 Concentration −8.0 Molar",88%
same,GI50,"UACC-62; Homo sapiens, UACC-62",414 nM
same,CC50,"UACC-62; Homo sapiens, UACC-62, read-out: LC50",> 100000 nM
same,TGI,UACC-62; UACC-62,>1.00E−4 Molar
same,Percent Growth,"UACC-62; UACC-62, Log10 Concentration −4.0 Molar",14%
same,Percent Growth,"UACC-62; UACC-62, Log10 Concentration −5.0 Molar",15%
same,Percent Growth,"UACC-62; UACC-62, Log10 Concentration −6.0 Molar",37%
same,Percent Growth,"UACC-62; UACC-62, Log10 Concentration −7.0 Molar",71%
same,Percent Growth,"UACC-62; UACC-62, Log10 Concentration −8.0 Molar",94%
same,TGI,CAKI-1; CAKI-1,>1.00E−4 Molar
same,Percent Growth,"CAKI-1; CAKI-1, Log10 Concentration −4.0 Molar",5%
same,Percent Growth,"CAKI-1; CAKI-1, Log10 Concentration −5.0 Molar",2%
same,Percent Growth,"CAKI-1; CAKI-1, Log10 Concentration −6.0 Molar",16%
same,Percent Growth,"CAKI-1; CAKI-1, Log10 Concentration −7.0 Molar",54%
same,Percent Growth,"CAKI-1; CAKI-1, Log10 Concentration −8.0 Molar",100%
same,GI50,"CAKI-1; Homo sapiens, CAKI-1",126 nM
same,CC50,"CAKI-1; Homo sapiens, CAKI-1, read-out: LC50",> 100000 nM
same,GI50,"RXF 393; Homo sapiens, RXF 393",128 nM
same,CC50,"RXF 393; Homo sapiens, RXF 393, read-out: LC50",> 100000 nM
same,TGI,RXF 393; RXF 393,4.03E−7 Molar
same,Percent Growth,"RXF 393; RXF 393, Log10 Concentration −4.0 Molar",−18%
same,Percent Growth,"RXF 393; RXF 393, Log10 Concentration −5.0 Molar",−20%
same,Percent Growth,"RXF 393; RXF 393, Log10 Concentration −6.0 Molar",−39%
same,Percent Growth,"RXF 393; RXF 393, Log10 Concentration −7.0 Molar",61%
same,Percent Growth,"RXF 393; RXF 393, Log10 Concentration −8.0 Molar",81%
same,TGI,SN12C,>1.00E−4 Molar
same,GI50,SN12C; Homo sapiens,472 nM
same,CC50,"SN12C; Homo sapiens, read-out: LC50",> 100000 nM
same,Percent Growth,SN12C; Log10 Concentration −4.0 Molar,23%
same,Percent Growth,SN12C; Log10 Concentration −5.0 Molar,22%
same,Percent Growth,SN12C; Log10 Concentration −6.0 Molar,30%
same,Percent Growth,SN12C; Log10 Concentration −7.0 Molar,91%
same,Percent Growth,SN12C; Log10 Concentration −8.0 Molar,96%
same,GI50,"MCF7; Homo sapiens, MCF7",120 nM
same,CC50,"MCF7; Homo sapiens, MCF7, read-out: LC50",> 100000 nM
same,TGI,MCF7; MCF7,>1.00E−4 Molar
same,Percent Growth,"MCF7; MCF7, Log10 Concentration −4.0 Molar",7%
same,Percent Growth,"MCF7; MCF7, Log10 Concentration −5.0 Molar",10%
same,Percent Growth,"MCF7; MCF7, Log10 Concentration −6.0 Molar",16%
same,Percent Growth,"MCF7; MCF7, Log10 Concentration −7.0 Molar",53%
same,Percent Growth,"MCF7; MCF7, Log10 Concentration −8.0 Molar",92%
same,GI50,"MDA-MB-468; Homo sapiens, MDA-MB-468",155 nM
same,CC50,"MDA-MB-468; Homo sapiens, MDA-MB-468, read-out: LC50",19900 nM
same,TGI,MDA-MB-468; MDA-MB-468,4.01E−7 Molar
same,Percent Growth,"MDA-MB-468; MDA-MB-468, Log10 Concentration −4.0 Molar",−56%
same,Percent Growth,"MDA-MB-468; MDA-MB-468, Log10 Concentration −5.0 Molar",−47%
same,Percent Growth,"MDA-MB-468; MDA-MB-468, Log10 Concentration −6.0 Molar",−48%
same,Percent Growth,"MDA-MB-468; MDA-MB-468, Log10 Concentration −7.0 Molar",73%
same,Percent Growth,"MDA-MB-468; MDA-MB-468, Log10 Concentration −8.0 Molar",85%
